Results published in PubChem BioAssay (NCI).
Where “and” joins values, the source holds several entries; their conditions need not be identical. Identical values can stand only once.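 Method: 48-hour compound exposure of cells in 96-well plates, five concentrations, linear interpolation of endpoints. The concentration for 50% growth inhibition is given as GI50. The concentration for full growth arrest is given as TGI.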

What was measured:
Test in all cases: inhibition of tumour cell growth, NCI panel, 48 h
[1] = tested on: TK-10 renal
[2] = tested on: CCRF-CEM leukemia
[3] = tested on: OVCAR-4 ovarian
[4] = tested on: HOP-92 NSCLC
[5] = tested on: A549 NSCLC
[6] = tested on: BT-549 breast
[7] = tested on: SN12C renal
[8] = tested on: NCI/ADR-RES ovarian
[9] = tested on: MOLT-4 leukemia
[10] = tested on: EKVX NSCLC
[11] = tested on: UACC-62 melanoma
[12] = tested on: ACHN renal

Compound	TGI [1]	TGI [2]	TGI [3]	TGI [4]	TGI [5]	TGI [6]	TGI [7]	TGI [8]	TGI [9]	TGI [10]	TGI [11]	TGI [12]	GI50 [1]
c1ccc2c(c1)[C@@H]1O[C@@H]1[C@@]13O[C@@]21[C@H]1O[C@H]1c1ccccc13	62.2 µM	24.3 µM	26.8 µM	23.4 µM	47 µM	30.3 µM	38.2 µM	39.6 µM	> 100 µM	31.9 µM	28.1 µM	28.9 µM	
COc1ccc2c(-c3csc(-c4c[nH]c5ccccc45)n3)c[nH]c2c1	23.5 µM	> 63.3 µM	69.8 µM	26.4 µM	53.7 µM	> 100 µM	35.9 µM	> 81.6 µM	19.8 µM	13.3 µM	> 94.8 µM	16.9 µM	
S=C1NNC(=S)NN1	> 1 µM	> 1 µM	> 1 µM	> 1 µM	> 1 µM	> 1 µM	0.354 µM	> 1 µM	0.898 µM	> 1 µM	> 1 µM	> 1 µM	
Cc1cccc(-c2cc(=O)c3cc(C)cnc3[nH]2)c1	> 100 µM	36.9 µM	> 100 µM	> 100 µM	> 100 µM	> 58.3 µM	> 94.6 µM	0.394 µM	> 100 µM	> 100 µM	> 100 µM	> 100 µM	
Cc1cnc2[nH]c(-c3sccc3C)cc(=O)c2c1	> 100 µM	> 100 µM	> 100 µM	> 100 µM	> 100 µM	> 100 µM	> 100 µM	> 100 µM	> 84.5 µM	> 100 µM	> 54.3 µM	> 100 µM	
CC(=O)OC1COC(n2c(N)c(C#N)c(-c3ccccc3)c(C#N)c2=S)C(OC(C)=O)C1OC(C)=O (stereo not drawn)	94 µM	67.7 µM and > 100 µM	> 100 µM	> 100 µM and 92.6 µM	> 100 µM	71.8 µM and 62.9 µM	> 100 µM	> 100 µM	54.3 µM and 75.4 µM	> 100 µM	> 100 µM	> 100 µM	
CC(C)(CO)Nc1c(O)c2c(c(O)c1Cl)C(=O)C=CC2=O	3.36 µM	1.26 µM	2.92 µM	3.3 µM	3.61 µM	2.24 µM	2.91 µM	3.65 µM	3.3 µM	3.82 µM	2.72 µM	3.08 µM	
C/C(=C\c1ccccc1)n1c(=O)cc(C)n1C	> 100 µM	> 100 µM	> 100 µM	> 100 µM	> 100 µM	> 100 µM	> 100 µM	> 100 µM	> 100 µM	> 100 µM	> 100 µM	> 100 µM	
CC(=O)OCC12C(OC(C)=O)C[C@@H](C)C3(CC(c4ccoc4)OC3=O)C1CCC(OC(C)=O)C21CO1 (stereo partly drawn)	> 100 µM	> 100 µM	> 100 µM	> 100 µM	> 100 µM	> 100 µM	> 100 µM	> 100 µM	> 100 µM	> 100 µM	> 100 µM	> 100 µM	
CC(=O)O[C@H]1CC[C@]2(C=O)[C@H]3CC[C@]4(C)[C@@H](C5=CC(=O)OC5)CC[C@]4(O)[C@@H]3CC[C@]2(O)C1	0.93 µM	> 31.6 µM	0.35 µM	2.76 µM	0.253 µM	0.575 µM	1.53 µM	0.467 µM	0.0798 µM	0.615 µM	1.1 µM	0.557 µM	
CCOC(=O)CCC1(C(=O)O[C@@H]2C[C@H](C)CC[C@H]2C(C)C)CCCCC1=O (stereo partly drawn)	> 100 µM	> 100 µM	> 100 µM	> 100 µM	> 100 µM	> 100 µM	> 100 µM	> 100 µM	> 100 µM	> 100 µM	> 100 µM	> 100 µM	
O=C1CSC(c2cc3cc(Br)ccc3nc2Cl)N1c1ccc(F)c(Cl)c1 (stereo not drawn)	> 50 µM	> 50 µM	> 50 µM	> 50 µM	> 50 µM	> 50 µM	> 50 µM	> 50 µM	32.9 µM	> 50 µM	> 50 µM	> 50 µM	
O=C1CCc2c(sc3ncnc(Nc4cccc(Br)c4)c23)C1	14.5 µM	4.38 µM	8.63 µM	9.21 µM	24.5 µM	13.9 µM	12.7 µM	> 26.7 µM	> 27 µM	12.4 µM	11.1 µM	8.04 µM	
O=C(O)CCC(NC(=O)/C(=C/c1ccccc1)NC(=O)c1ccccc1)C(=O)O (stereo not drawn)	> 100 µM	> 100 µM	> 100 µM	> 100 µM	> 100 µM	> 100 µM	> 100 µM	> 100 µM	> 100 µM	> 100 µM	> 100 µM	> 100 µM	
N#Cc1nc(-c2ccccn2)c(-c2ccccn2)nc1C#N	17.3 µM	> 38.4 µM	12.3 µM	> 45.6 µM	19.8 µM	12.1 µM	> 100 µM	8.5 µM	> 30.6 µM	15.7 µM	5.1 µM	7.95 µM	
CN1CCN(C2CC(=O)c3c(Cl)sc(Cl)c32)CC1 (stereo not drawn)	> 61 µM	14.6 µM	> 42.9 µM	> 27 µM	> 52.9 µM	> 52.2 µM	30 µM	> 59 µM	> 51.9 µM	> 55.5 µM	34.1 µM	36.6 µM	
CC(C)(C)C1=CC(O)(c2c3ccccc3c(C3(O)C=C(C(C)(C)C)C(=O)C(C(C)(C)C)=C3)c3ccccc23)C=C(C(C)(C)C)C1=O	> 100 µM	> 100 µM	> 100 µM	0.028 µM	> 100 µM	> 100 µM	> 100 µM	> 100 µM	> 100 µM	> 100 µM	> 100 µM	> 100 µM	
COc1nc2ncc([C@@H](O)[C@H](O)CO)nc2c(=O)[nH]1	> 100 µM	> 100 µM	> 100 µM	> 100 µM	> 100 µM	> 100 µM	> 100 µM	> 100 µM	> 100 µM	> 100 µM	> 100 µM	> 100 µM	

Compound	TGI [1]	TGI [2]	TGI [3]	TGI [4]	TGI [5]	TGI [6]	TGI [7]	TGI [8]	TGI [9]	TGI [10]	TGI [11]	TGI [12]	GI50 [1]
CCOC(=O)/C=C/C(Br)=C(Br)/C=C/C(=O)OCC	28.1 µM	2.84 µM	34.8 µM	37.1 µM	56 µM	12.4 µM	25.9 µM	64.8 µM	5.93 µM	36.2 µM	30.9 µM	25.8 µM	
CSC(=N/N=C(\C)c1ccc(S(=O)(=O)N(C)c2ccccc2)cc1)SC	> 100 µM	> 95.2 µM	> 100 µM	> 100 µM	> 100 µM	> 100 µM	> 100 µM	> 100 µM	> 100 µM	> 100 µM	> 100 µM	> 100 µM	
O=c1[nH]c(=O)c2c([nH]1)[nH]c1ccccc12	> 100 µM	> 100 µM	> 100 µM	> 100 µM	> 100 µM	> 100 µM	> 100 µM	> 100 µM	> 100 µM	> 100 µM	> 100 µM	> 100 µM	
CN1C(=O)[C@](C)(Cc2ccc(F)cc2)N(C(=O)OC(C)(C)C)[C@@H]1C(C)(C)C	> 100 µM	> 100 µM	> 100 µM	> 100 µM	> 100 µM	> 100 µM	32.4 µM	44.8 µM	40.6 µM	> 100 µM	> 100 µM	> 100 µM	
C/C(=N/NC(=O)c1ccccc1Nc1ccccc1C(=O)N/N=C(\C)c1ccc(C)cc1)c1ccc(C)cc1	> 100 µM	> 100 µM	> 100 µM	> 100 µM	> 100 µM	> 100 µM	> 100 µM	> 100 µM	> 100 µM	> 100 µM	> 100 µM	> 100 µM	
O=C1/C(=C/Cc2ccco2)N=C(c2ccccc2)N1c1nc2c(Cl)cc(Cl)cc2s1	> 100 µM	39.8 µM	75.6 µM	87.4 µM	80.7 µM	83.5 µM	> 100 µM	84.5 µM	33.3 µM	76.2 µM	> 100 µM	74.6 µM	
Cc1nc(C)c(C(=O)NNC(=O)c2ccccc2)cc1C(=O)NNC(=O)c1ccccc1	> 100 µM	> 100 µM	> 100 µM	> 100 µM	> 100 µM	> 100 µM	> 100 µM	> 100 µM	> 100 µM	> 10 µM	> 100 µM	> 100 µM	
Cc1cccc2c1C(=O)/C(=C/c1ccccc1C(=O)O)C2	> 100 µM	> 100 µM	> 100 µM	> 100 µM	> 100 µM	> 100 µM	> 100 µM	> 100 µM	> 100 µM	> 100 µM	> 100 µM	> 100 µM	
COc1cc(OC)cc(-c2nc3ccccc3c(=O)[nH]2)c1	> 100 µM	> 100 µM	> 100 µM	> 100 µM	> 100 µM	> 100 µM	> 100 µM	> 100 µM	> 100 µM	> 100 µM	> 100 µM	> 100 µM	
NS(=O)(=O)c1ccc(NS(=O)(=O)c2ccc(NC(=O)N(c3ccccc3)c3ccccc3)cc2)cc1	> 100 µM	> 100 µM	> 100 µM	> 100 µM	> 100 µM	> 100 µM	> 100 µM	> 100 µM	> 100 µM	> 100 µM	> 100 µM	> 100 µM	
Nc1nc(Cl)cc(NCC2CC(O)(CO)C2)n1 (stereo not drawn)	> 100 µM	> 100 µM	> 100 µM	> 100 µM	> 100 µM	> 100 µM	> 100 µM	> 100 µM	> 100 µM	> 100 µM	> 100 µM	> 100 µM	
NC(=O)c1ccc(S(=O)(=NS(=O)(=O)c2ccccc2)c2ccc(C(N)=O)cc2)cc1	> 100 µM	> 100 µM	> 100 µM	> 100 µM	> 100 µM	> 100 µM	> 100 µM	> 100 µM	> 100 µM	> 100 µM	> 100 µM	> 100 µM	
CCN(CC)CCC1(C(=O)OC)SCCc2ccc(C)cc21 (stereo not drawn)	> 100 µM	> 100 µM	> 100 µM	> 100 µM	> 100 µM	> 100 µM	> 100 µM	> 100 µM	> 100 µM	> 100 µM	> 100 µM	> 100 µM	
CCOC(=O)CCN1C(=O)c2c(NC(=O)C(=O)O)cccc2S1(=O)=O	> 100 µM	> 100 µM	> 100 µM	> 100 µM	> 100 µM	> 100 µM	> 100 µM	> 100 µM	> 100 µM	> 100 µM	> 100 µM	> 100 µM	
CC1=CCC(=O)[C@]2(C)C(CC(=O)O)[C@]3(C)C4=C(C)C(c5ccoc5)C[C@@H]4O[C@@H]3[C@H](O)[C@@H]12 (stereo partly drawn)	> 100 µM	> 100 µM	> 100 µM	> 100 µM	> 100 µM	> 100 µM	> 100 µM	> 100 µM	> 100 µM	> 100 µM	> 100 µM	> 100 µM	
Cc1cc(C)c(N)c(CO)c1	18.7 µM and > 38.5 µM	> 100 µM	> 100 µM	> 100 µM	> 100 µM	> 100 µM	> 100 µM	> 100 µM	> 100 µM	> 100 µM	> 90.2 µM	> 100 µM	2.61 µM and 6.9 µM
CC(=O)N1C(=O)/C(=C\C(=O)c2ccc(Cl)cc2)c2ccccc21	30.5 µM	7.58 µM	35.9 µM	35 µM	22.9 µM	18.4 µM	32.1 µM	53.5 µM	9.09 µM	36.2 µM	28.6 µM	23.6 µM	
Cn1c(-c2cccs2)cc(-c2ccsc2)c1-c1ccsc1	> 100 µM	> 100 µM	> 100 µM	> 100 µM	> 100 µM	> 100 µM	> 100 µM	> 100 µM	> 100 µM	> 100 µM	> 100 µM	> 100 µM	
